Source: US20050260737A1, “Novel lipase gene from Bacillus sphaericus 205y” (priority 2004, published 2005)

Columns and labels:
[1] = system: recombinant lipase (Bacillus sphaericus 205y lipase expressed in E. coli); test: Effect of organic solvents on crude recombinant lipase activity (organic solvent-tolerant test); assay type: biochemical; settings: for Relative activity (%) at concentration of 25%: 25% (v/v) solvent (1 ml solvent/3 ml crude enzyme), 30 min, 37° C., shaking, relative to non-solvent control
Description: The mixture is allowed to stand still for 20-30 seconds until the aqueous phase was sedimented clearly from the solution of isooctane and fatty acids. The reaction mixture contains 0.01 M calcium chloride (20 μl), olive oil emulsion (2.5 ml) and crude enzyme (1 ml). The reaction mixture was continuously agitated by using a horizontal shaker at 200 rpm at 37° C. The reaction was stopped by adding isooctane (5 ml) to dissolve free fatty acids produced by olive oil hydrolysis. Lipase activity was determined by measuring the free fatty acids from the standard curve of free fatty acids. One unit of lipase activity was defined as 1.0 μmol of fatty acid liberated per min per ml.
After induction with IPTG (1 mM), 10 ml of cells were pelleted by centrifugation at 10,000 gram and resuspended in 10 ml of Phosphate buffer (PBS). The cells were mixed thoroughly, placed on ice, and sonicated with Branson sonicater (2 min, 30% duty cycle). The broken cells were pelleted and the supernantant were used in determining the lipase activity and organic solvent tolerant. Various organic solvents were tested at the concentration of 25% (v/v) by addition of 1 ml of organic solvent to 3 ml of crude enzyme. The reaction mixture was incubated for 30 minutes at 37° C. under shaking condition (200 rpm). Remaining activity was assayed under standard condition and expressed as the percent of the control value. For control, distilled water was added instead of solvent. The organic solvents used were hexane, ρ-xylene, benzene, dimethy sulfoxide, acetonitrile and hexadecane. Each experiment was done in triplicate.
Table 4: Effect of different organic solvents on crude recombinant lipase activity. Three milliliters of cell-free supernatant of the culture was incubated with 1 ml of organic solvents at 37° C. with shaking. The remaining lipase activity relative to the non-solvent containing control was measured.

[2] = system: isolate 205y; test: Growth of isolate 205y in different organic solvents and concentrations; assay type: cell-based, Bacillus sphaericus 205y; set-up: Growth of isolate 205y: key to the marks not given beside the values; settings: for Growth of isolate 205y: growth visually determined
Description: The Bacillus sphaericus 205y culture could be obtained from Enzyme and Microbial Technology Research Department of Biochemistry and Microbiology, Faculty of Science and Environmental Studies, University Putra Malaysia. One gram of soil is resuspended in 10 ml basal mineral […] supplemented with selected hydrocarbon (0.1% v/v). The basal media contained (w/v) K2HPO4 0.5%, NH4Cl (1.0%), Na2SO4 (2%), KNO3 (2%), MgSO4.7H2O (0.2%).
Selected hydrocarbons would either be benzene, toluene or mixture of both as their sole carbon and energy source. Pure isolates were prescreened in media spiked with 1% v/v hydrocarbon. Isolates were grouped into groups of good, moderate, acceptable and negative, based on the turbidity of the media (Inoue et al., 1989). Non-inoculated controls were also used to ensure that the turbidity is due to growth.

[3] = cited from earlier work
[4] = system: lipase secreted by Bacillus sphaericus 205y; test: Effect of organic solvents on crude lipase secreted by Bacillus sphaericus 205y; assay type: biochemical; settings: 25% (v/v) solvent
Description: Lipase activity is measured with olive oil emulsion as substrate (Kwon and Rhee. 1991). All reactions were performed at 37° C. for 15 minutes at shaking condition of 200 rpm unless otherwise indicated. One unit of lipase activity was defined as 1.0 μmol of fatty acid liberated per min per ml.
Bacillus sphaericus 205y is grown at 37° C. in M3 medium. The culture medium (24 h) is […] (0.25 μm pore size) as crude enzyme. Investigation of various effects of organic solvents at the concentration of 25% (v/v) (1 ml of organic solvent/3 ml of crude enzyme) on the lipase activity was done. The reaction mixture was incubated for 30 minutes at 37° C. under shaking condition (200 rpm).

| Compound | Relative activity (%) at concentration of 25% [1] | Growth of isolate 205y ([2]; Hydrocarbon 1% (v/v)) | Growth of isolate 205y ([2]; Hydrocarbon 5% (v/v)) | Growth of isolate 205y ([2]; Hydrocarbon 10% (v/v)) | Growth of isolate 205y ([2]; Hydrocarbon 25% (v/v)) | Growth of isolate 205y ([2]; Hydrocarbon 50% (v/v)) | Growth of isolate 205y ([2]; Hydrocarbon 75% (v/v)) | Log P [3] | Effect on recombinant lipase activity (in words) ([1]; 25% (v/v) solvent) | Lipase activity enhanced (fold of control) ([1]; 25% (v/v) solvent) | Stability of lipase secreted by Bacillus sphaericus 205y in solvent (in words) [4] | Growth of 205y in solvent (in words) [2] |
| --- | --- | --- | --- | --- | --- | --- | --- | --- | --- | --- | --- | --- |
| CC#N [Acetonitrile] | 0% | – | – | – | – | – | – | – | – | – | – | – |
| c1ccccc1 [Benzene] | – | ++ | +++ | +++ | ++ | ++ | ++ | – | – | – | – | – |
| C[S+](C)[O-] [Dimethyl sulfoxide] | 10% | – | – | – | – | – | – | −1.22 | – | – | – | – |
| CCCCCCCCCCCCCCCC [Hexadecane] | 0% | – | – | – | – | – | – | – | completely inhibited | – | – | – |
| Cc1ccccc1 [Toluene] | – | +++ | +++ | ++ | ++ | ++ | ++ | – | – | – | – | – |
| CCCCCC [n-Hexane] | 110% | – | – | – | – | – | – | 3.6 | slightly activated | 1.10 folds | stable | – |
| Cc1ccc(C)cc1 [ρ-Xylene] | 90% | ++ | +++ | +++ | +++ | ++ | ++ | – | – | – | stable | good growth |
